Experimental data taken from ChEMBL document CHEMBL6103568, “An overview of small-molecule agents for the treatment of psoriasis” (Bioorg Med Chem, 2025).
Blank lines part the entries; values can stand above or below the compound they belong to.

Tests used:
[1] = biological target: 3',5'-cyclic-AMP phosphodiesterase 4B (Homo sapiens, UniProt Q07343); assay: Inhibition of PDE4B (unknown origin)
[2] = biological target: Tyrosine-protein kinase JAK2 (Homo sapiens, UniProt O60674); assay: Inhibition of JAK2 (unknown origin)
Chain of Tyrosine-protein kinase JAK2 (O60674 whole entry): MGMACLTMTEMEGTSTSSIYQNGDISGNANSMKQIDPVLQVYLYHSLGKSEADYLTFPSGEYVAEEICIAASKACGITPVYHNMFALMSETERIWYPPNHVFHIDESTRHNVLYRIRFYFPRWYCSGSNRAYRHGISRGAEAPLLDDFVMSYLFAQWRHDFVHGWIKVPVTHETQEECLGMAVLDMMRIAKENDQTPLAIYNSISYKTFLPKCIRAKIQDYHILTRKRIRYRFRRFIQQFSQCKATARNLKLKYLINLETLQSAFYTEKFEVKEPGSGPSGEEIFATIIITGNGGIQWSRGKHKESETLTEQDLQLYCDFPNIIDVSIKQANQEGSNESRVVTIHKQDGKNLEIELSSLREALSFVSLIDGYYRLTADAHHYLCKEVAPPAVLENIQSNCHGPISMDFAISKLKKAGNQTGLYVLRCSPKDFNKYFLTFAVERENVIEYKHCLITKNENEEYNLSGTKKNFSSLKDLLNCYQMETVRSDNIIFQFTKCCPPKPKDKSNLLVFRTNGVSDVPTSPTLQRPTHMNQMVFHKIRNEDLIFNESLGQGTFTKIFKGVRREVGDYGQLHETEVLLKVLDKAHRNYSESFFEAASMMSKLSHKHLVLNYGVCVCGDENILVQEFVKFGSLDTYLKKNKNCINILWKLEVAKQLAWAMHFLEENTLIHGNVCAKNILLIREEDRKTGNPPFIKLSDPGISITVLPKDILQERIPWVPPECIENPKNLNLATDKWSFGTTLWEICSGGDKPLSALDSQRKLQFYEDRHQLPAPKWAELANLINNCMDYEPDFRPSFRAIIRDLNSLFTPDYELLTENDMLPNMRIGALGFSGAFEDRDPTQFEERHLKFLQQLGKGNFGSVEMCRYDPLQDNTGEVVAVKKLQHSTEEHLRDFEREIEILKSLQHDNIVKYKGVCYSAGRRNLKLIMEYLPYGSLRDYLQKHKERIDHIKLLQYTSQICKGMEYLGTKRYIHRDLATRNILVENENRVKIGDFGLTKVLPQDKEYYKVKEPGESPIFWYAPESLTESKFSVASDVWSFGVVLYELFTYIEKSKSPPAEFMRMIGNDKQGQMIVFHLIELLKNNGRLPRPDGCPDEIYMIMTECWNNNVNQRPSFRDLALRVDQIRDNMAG

Cytochrome P450 3A5 = Cytochrome P450 3A5 (Homo sapiens, UniProt P20815); assay: Inhibition of CYP3A5 (unknown origin); type: ADME
Chain of Cytochrome P450 3A5 (P20815 whole entry): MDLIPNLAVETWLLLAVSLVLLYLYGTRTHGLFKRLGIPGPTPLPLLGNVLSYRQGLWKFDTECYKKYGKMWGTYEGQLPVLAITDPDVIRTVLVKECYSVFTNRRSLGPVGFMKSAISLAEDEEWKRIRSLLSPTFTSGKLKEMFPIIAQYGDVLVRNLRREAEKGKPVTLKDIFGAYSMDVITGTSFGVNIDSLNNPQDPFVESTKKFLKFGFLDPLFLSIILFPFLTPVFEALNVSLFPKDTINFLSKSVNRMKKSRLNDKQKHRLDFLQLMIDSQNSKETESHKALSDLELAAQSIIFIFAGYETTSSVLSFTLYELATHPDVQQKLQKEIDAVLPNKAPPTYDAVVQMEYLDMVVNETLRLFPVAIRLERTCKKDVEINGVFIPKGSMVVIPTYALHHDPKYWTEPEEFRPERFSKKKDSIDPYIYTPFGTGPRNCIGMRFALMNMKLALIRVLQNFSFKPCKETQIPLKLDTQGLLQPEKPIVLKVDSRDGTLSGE

Phosphodiesterase 4 = Phosphodiesterase 4 (Homo sapiens, UniProt P27815+Q08499+Q07343+Q08493); assay: Inhibition of PDE4 (unknown origin); type: protein assay
[3] = biological target: Sphingosine 1-phosphate receptor 1 (Homo sapiens, UniProt P21453); assay: Agonist activity at S1P1 (unknown origin) by HTRF assay; type: functional
Chain of Sphingosine 1-phosphate receptor 1 (P21453 whole entry): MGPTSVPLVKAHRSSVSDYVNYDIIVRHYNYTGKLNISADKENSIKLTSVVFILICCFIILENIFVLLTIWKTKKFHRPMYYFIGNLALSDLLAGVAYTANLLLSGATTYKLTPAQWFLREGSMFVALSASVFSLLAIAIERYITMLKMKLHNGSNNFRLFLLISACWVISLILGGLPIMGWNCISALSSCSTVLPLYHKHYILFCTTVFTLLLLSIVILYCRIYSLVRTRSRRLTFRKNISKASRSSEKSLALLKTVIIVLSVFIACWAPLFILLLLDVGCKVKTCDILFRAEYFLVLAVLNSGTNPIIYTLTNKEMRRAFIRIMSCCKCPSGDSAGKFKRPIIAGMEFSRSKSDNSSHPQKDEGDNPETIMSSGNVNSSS

Chain of 3',5'-cyclic-AMP phosphodiesterase 4B (Q07343 whole entry): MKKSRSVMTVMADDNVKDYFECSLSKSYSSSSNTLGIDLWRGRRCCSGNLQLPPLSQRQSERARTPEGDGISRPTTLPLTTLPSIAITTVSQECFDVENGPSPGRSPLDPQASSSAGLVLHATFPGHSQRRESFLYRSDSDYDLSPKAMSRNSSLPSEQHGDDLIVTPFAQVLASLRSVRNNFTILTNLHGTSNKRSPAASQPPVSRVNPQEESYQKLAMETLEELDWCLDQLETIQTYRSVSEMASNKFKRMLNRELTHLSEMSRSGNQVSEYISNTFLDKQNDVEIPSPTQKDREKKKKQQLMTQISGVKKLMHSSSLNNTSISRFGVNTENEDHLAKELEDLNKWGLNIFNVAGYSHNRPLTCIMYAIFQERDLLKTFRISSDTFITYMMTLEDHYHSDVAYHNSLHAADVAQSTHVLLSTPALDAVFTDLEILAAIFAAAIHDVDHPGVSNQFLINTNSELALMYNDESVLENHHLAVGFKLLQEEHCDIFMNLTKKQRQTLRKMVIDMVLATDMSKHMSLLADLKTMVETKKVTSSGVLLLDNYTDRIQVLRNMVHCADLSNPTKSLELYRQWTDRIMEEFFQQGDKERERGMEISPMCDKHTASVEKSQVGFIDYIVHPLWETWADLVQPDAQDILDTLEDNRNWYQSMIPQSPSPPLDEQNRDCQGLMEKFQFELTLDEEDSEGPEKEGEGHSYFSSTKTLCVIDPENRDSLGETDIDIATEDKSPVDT

SMILES: CCS(=O)(=O)N1CC(CC#N)C1n1cc(-c2ncnc3[nH]ccc23)cn1 (stereo not given)
IC50 [2]: 0.0057 µM

SMILES: CCOc1cc([C@@H](CS(C)(=O)=O)N2C(=O)c3csc(NC(C)=O)c3C2=O)ccc1OC
IC50 (Phosphodiesterase 4): 0.114 µM

SMILES: CCC/N=C1/S/C(=C\c2ccc(OC[C@H](O)CO)c(Cl)c2)C(=O)N1c1ccccc1C
EC50 [3]: 0.006 µM

Other lines, results leading:

IC50 [1]: 0.074 µM
SMILES: COc1ccc([C@H](N2C(=O)c3cccc(NC(C)=O)c3C2=O)S(C)(=O)=O)cc1OC

IC50 (Cytochrome P450 3A5): 0.206 µM
SMILES: O=C(O)CC1CCN(C(=O)c2ccc(Cl)c(Cn3ccc4cc(C(F)(F)F)cc(Cl)c43)c2Cl)CC1 [CEDIROGANT]
